Measured values taken from ChEMBL document CHEMBL3817743, “Potent and Selective Human Neuronal Nitric Oxide Synthase Inhibition by Optimization of the 2-Aminopyridine-Based Scaffold with a Pyridine Linker” (J Med Chem, 2016).
pKi: −log10 of the molar value.

Tests used:
[1] = Drug metabolism in human liver microsomes at 1 uM incubated for 60 mins by LC-MS/MS analysis; assay type: ADME; details: read-out: Drug metabolism
Cytochrome P450 2D6 = Cytochrome P450 2D6 (Homo sapiens, UniProt P10635); assay: Inhibition of CYP2D6 in human liver microsomes using bufuralol as substrate at 10 uM preincubated for 5 mins followed by NADPH addition measured after 10 mins by LC-MS/MS analysis relative to control; assay type: ADME
Cytochrome P450 2D6, sequence (P10635 whole entry): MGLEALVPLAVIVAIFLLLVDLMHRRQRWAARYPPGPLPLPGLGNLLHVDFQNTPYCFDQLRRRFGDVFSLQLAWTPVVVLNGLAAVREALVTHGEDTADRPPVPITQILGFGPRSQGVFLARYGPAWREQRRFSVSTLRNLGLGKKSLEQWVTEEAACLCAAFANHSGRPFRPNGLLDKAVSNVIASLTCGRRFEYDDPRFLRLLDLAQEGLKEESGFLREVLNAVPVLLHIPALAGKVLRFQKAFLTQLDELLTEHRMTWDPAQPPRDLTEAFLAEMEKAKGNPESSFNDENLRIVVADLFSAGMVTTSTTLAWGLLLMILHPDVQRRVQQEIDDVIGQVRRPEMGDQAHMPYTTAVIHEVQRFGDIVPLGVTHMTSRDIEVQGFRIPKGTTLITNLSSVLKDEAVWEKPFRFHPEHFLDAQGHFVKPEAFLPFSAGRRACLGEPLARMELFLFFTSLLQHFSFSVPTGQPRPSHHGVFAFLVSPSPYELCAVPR

Cytochrome P450 2C9 = Cytochrome P450 2C9 (Homo sapiens, UniProt P11712); assay: Inhibition of CYP2C9 in human liver microsomes using diclofenac as substrate at 10 uM preincubated for 5 mins followed by NADPH addition measured after 10 mins by LC-MS/MS analysis relative to control; assay type: ADME
Cytochrome P450 2C9, sequence (P11712 whole entry): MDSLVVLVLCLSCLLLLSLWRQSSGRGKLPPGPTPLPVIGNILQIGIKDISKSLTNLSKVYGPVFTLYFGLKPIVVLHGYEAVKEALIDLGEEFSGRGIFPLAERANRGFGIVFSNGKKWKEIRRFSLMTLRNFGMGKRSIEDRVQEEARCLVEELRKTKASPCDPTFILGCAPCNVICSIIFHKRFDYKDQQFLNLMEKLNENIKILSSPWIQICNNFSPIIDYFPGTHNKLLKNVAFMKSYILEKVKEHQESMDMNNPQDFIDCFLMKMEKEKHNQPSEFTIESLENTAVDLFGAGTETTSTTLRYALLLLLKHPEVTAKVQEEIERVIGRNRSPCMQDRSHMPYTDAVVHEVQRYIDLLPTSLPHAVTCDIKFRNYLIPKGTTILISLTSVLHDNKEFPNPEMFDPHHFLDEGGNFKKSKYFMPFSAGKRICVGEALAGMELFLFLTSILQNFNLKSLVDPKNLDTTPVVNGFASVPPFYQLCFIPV

Cytochrome P450 1A2 = molecular target: T1, Cytochrome P450 1A2 (Homo sapiens, UniProt P05177); assay: Inhibition of CYP1A2 in human liver microsomes using phenacetin as substrate at 10 uM preincubated for 5 mins followed by NADPH addition measured after 10 mins by LC-MS/MS analysis relative to control; assay type: ADME
T1 sequence (P05177 whole entry): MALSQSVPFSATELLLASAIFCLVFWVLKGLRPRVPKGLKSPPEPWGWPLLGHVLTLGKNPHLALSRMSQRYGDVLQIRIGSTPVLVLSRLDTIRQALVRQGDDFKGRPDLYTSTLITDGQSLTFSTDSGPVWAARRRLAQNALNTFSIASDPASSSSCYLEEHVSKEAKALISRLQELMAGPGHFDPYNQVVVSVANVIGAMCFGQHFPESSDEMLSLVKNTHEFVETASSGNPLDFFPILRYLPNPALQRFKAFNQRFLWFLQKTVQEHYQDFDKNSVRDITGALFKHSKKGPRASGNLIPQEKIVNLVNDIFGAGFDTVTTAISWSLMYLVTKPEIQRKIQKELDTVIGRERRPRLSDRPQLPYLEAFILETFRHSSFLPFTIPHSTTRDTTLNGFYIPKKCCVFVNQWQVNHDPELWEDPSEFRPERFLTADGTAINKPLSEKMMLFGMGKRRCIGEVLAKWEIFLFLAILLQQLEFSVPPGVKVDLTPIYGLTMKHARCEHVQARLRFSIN

[2] = Permeability from apical to basolateral side in human Caco2 cells at 10 uM after 2 hrs by LC-MS/MS analysis; assay type: ADME, cell-based; details: caco-2, 2 h
[3] = Drug metabolism in human liver microsomes at 1 uM preincubated for 5 mins followed by NADPH addition measured after […] mins by LC-MS/MS analysis; assay type: ADME; details: read-out: Drug metabolism
Nitric oxide synthase 1 = Nitric oxide synthase 1 (Rattus norvegicus, UniProt P29476); assay: Inhibition of rat recombinant nNOS expressed in Escherichia coli using L-arginine as substrate assessed as reduction in NO production measured for 6 mins in presence of tetrahydrobiopterin by hemoglobin capture assay
Nitric oxide synthase 1, sequence (P29476 whole entry): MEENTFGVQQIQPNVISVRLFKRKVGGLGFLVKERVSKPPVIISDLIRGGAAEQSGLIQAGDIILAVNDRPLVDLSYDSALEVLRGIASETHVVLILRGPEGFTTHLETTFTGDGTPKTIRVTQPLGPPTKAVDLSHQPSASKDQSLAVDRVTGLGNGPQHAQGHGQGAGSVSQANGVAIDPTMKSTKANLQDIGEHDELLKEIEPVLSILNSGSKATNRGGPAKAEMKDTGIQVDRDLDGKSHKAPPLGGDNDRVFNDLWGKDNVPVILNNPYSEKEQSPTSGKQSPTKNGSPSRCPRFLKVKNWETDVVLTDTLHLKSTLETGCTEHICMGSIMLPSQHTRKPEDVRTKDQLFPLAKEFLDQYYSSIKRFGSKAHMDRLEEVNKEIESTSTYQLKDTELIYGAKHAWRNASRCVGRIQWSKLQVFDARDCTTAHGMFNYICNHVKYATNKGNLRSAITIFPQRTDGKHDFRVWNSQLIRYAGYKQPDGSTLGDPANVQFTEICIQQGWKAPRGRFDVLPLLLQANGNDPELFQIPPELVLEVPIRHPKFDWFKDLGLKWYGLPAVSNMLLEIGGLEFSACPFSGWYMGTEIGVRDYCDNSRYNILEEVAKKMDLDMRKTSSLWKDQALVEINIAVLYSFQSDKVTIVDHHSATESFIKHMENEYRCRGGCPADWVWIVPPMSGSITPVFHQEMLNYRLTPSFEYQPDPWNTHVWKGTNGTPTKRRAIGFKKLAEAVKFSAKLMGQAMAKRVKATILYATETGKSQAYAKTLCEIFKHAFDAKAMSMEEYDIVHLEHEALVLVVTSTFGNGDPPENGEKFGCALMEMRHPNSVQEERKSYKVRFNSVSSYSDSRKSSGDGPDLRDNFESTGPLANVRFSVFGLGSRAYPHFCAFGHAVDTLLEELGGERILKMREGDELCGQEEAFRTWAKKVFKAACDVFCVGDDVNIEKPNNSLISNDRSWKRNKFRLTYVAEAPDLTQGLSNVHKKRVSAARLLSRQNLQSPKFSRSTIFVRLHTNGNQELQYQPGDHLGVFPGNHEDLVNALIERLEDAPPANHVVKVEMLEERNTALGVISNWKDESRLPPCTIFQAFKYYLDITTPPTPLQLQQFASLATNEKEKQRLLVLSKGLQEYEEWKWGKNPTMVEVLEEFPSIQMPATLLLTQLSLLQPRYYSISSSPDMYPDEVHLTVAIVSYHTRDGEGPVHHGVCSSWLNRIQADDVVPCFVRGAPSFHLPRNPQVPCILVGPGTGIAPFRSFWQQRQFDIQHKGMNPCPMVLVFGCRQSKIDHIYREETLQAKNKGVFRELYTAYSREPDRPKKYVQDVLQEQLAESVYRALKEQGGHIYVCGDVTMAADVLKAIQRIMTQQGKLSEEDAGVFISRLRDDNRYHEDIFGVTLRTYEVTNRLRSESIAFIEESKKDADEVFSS

[4] = molecular target: T2, Nitric oxide synthase, inducible (Mus musculus, UniProt P29477); assay: Inhibition of recombinant mouse macrophage iNOS expressed in Escherichia coli using L-arginine as substrate assessed as reduction in NO production measured for 6 mins by hemoglobin capture assay
T2 sequence (P29477 whole entry): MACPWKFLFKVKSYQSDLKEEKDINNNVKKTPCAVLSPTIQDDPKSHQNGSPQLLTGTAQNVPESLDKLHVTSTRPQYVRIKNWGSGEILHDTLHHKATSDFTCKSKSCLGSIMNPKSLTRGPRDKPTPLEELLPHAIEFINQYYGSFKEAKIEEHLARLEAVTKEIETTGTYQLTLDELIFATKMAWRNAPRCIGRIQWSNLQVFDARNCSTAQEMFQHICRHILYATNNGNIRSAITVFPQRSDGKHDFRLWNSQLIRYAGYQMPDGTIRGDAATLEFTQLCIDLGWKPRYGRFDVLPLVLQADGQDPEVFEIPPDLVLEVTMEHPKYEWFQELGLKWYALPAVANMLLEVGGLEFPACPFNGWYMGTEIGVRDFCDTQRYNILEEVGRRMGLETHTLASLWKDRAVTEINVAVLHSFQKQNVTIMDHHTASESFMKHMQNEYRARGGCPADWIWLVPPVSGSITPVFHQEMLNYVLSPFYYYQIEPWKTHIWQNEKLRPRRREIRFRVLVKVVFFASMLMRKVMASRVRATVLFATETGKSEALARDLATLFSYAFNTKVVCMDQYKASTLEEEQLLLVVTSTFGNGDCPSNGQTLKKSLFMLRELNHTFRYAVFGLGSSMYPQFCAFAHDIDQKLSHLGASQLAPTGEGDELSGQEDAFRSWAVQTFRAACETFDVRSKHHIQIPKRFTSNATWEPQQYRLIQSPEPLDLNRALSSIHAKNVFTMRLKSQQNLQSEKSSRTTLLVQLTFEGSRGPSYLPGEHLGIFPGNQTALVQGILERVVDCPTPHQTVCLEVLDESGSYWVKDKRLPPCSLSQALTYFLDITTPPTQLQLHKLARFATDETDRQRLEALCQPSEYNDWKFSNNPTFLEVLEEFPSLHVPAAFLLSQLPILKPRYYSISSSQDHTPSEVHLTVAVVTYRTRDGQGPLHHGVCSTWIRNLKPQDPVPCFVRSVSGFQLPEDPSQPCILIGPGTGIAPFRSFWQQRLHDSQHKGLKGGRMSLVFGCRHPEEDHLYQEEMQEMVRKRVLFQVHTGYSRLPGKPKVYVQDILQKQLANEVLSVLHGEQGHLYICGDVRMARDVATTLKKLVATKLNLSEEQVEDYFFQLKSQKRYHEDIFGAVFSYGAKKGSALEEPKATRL

SMILES | metabolised at 1 h, 1 µM [1] | inhibition (INH) (Cytochrome P450 2D6) | inhibition (INH) (Cytochrome P450 2C9) | inhibition (INH) (Cytochrome P450 1A2) | permeability [2] | metabolised at […], 1 µM [3] | pKi (Nitric oxide synthase 1) | pKi [4]
CNCCCc1cncc(CCc2cc(C)cc(N)n2)c1 | 23% | 6% | 0% | 9% | impermeable | 23% |  | 
Cc1cc(N)nc(CCc2cncc(N3CCCCC3)c2)c1 |  |  |  |  |  |  | 5.73 | 5.25
Cc1cc(N)nc(CCc2cccnc2)c1 |  |  |  |  |  |  | 6.15 | 5.56
